US11873486B2, “Modulating dsRNA editing, sensing, and metabolism to increase tumor immunity and improve the efficacy of cancer immunotherapy and/or modulators of intratumoral interferon” (Dana-Farber Cancer Institute, Inc., priority 2017, dated 2024)
“Also recorded” adds a separate entry of the source.

How the values were obtained:
ADA2 = target: T1, ADA2 (Homo sapiens, UniProt Q9NZK5); settings: cited from earlier work
T1 sequence (Q9NZK5 30-511): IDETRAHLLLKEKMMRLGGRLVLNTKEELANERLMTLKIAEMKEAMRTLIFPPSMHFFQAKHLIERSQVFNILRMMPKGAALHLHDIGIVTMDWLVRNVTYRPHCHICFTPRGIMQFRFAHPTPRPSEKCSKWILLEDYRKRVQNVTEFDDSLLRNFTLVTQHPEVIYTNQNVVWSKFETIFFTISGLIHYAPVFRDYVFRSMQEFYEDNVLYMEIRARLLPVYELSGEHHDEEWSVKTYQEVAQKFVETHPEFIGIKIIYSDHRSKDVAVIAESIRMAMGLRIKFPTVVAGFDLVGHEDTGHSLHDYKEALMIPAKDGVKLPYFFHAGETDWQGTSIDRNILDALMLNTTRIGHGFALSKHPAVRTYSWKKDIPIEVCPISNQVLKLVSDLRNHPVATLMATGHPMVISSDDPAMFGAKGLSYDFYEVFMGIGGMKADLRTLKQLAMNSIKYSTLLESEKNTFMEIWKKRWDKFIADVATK

[1] = test system: interferon stimulated genes in ADAR-dependent cell lines; assay: Immunoblot of interferon stimulated gene expression after inhibitor treatment; assay type: cell-based, human; settings: for ISG expression / interferon signaling: antioxidant treatment of ADAR-dependent cell lines
Experimental: (§1) For drug treatment assays, cells were plated at a density of 3000 cells per well in a 96-well assay plate. The following day, cells were treated with ruxolitinib (INCB018424) from Selleck Chemicals; MRT67307 hydrocloride (SML0702) from Sigma-Aldrich; human interferon-alphal (#8927) from Cell Signaling; recombinant human IFN-beta 1a (mammalian) protein (114151) and recombinant human IFN-gamma protein (285-IF-100) from R&D Systems. For preincubation drug treatment experiments, cells were plated in the presence of ruxolitinib and were treated with interferon-0 and ruxolitinib the following day. Control wells were treated with dimethylsulfoxide (DMSO). Cell viability was assayed 3 or 6 days after drug treatment with CellTiter-Glo® Luminescent Cell Viability Assay kit (Promega). Viability was normalized to DMSO controls.
Cells were lysed in RIPA lysis buffer (Thermo Scientific) supplemented with 1× protease and phosphatase inhibitor cocktails (Roche). Protein extracts were analyzed by standard immunoblotting with the following antibodies: ADAR1 (D7E2M), MDA5 (D74E4), RIG-I (D14G6), ISG15 (22D2), USP18 (D4E7), PKR (#3072), STING (D2P2F), cGAS (D1D3G), IRF9 (D2T8M), PD-L1 (E1L3N), P-IRF3 Ser396 (4D4G), IRF3 (D6I4C), P-TBK1 Ser172 (D52C2), TBK1 (D1B4), P-EIF2α Ser51 (#9721), and EIF2α (D7D3) from Cell Signaling; P-PKR Thr446 (ab32036) from Abcam; R-actin C4 (sc-47778) from Santa Cruz. All antibodies were used at a dilution of 1:1000 except R-actin which was used at 1:4000). The following secondary antibodies were used at 1:5000 dilution: Goat anti-Rabbit IRDye 800CW (LI-COR, 926-32211) and Goat anti-Mouse IRDye […] (LI-COR, 926-68020). All immunoblots were imaged using the LI-COR digital imaging system and ImageJ.

[2] = test system: ADAR1 knockout A549 cells; assay: Viability of ADAR1 knockout A549 cells with interferon or drug treatment; assay type: cell-based, human
Experimental: as §1
for interferon treatment assays, cells were plated at a low density of 3000 cells per well in a 96-well assay plate. The following day, cells were treated with human interferon-alpha 1 (Cell Signaling, #8927) or recombinant human IFN-beta 1a (mammalian) protein (PBL Assay Science, 114151). Control wells were treated with water. Cell viability was assayed 3 or 6 days after drug treatment with CellTiter-Glo© Luminescent Cell Viability Assay kit (Promega). Viability was normalized to controls. Apoptosis was assayed 3 days after interferon treatment with Caspase-Glo®3/7 Assay kit (Promega). Dose curves were obtained using least-squares nonlinear regression on a standard four-parameter logistic model using GraphPad Prism.

B16 tumors = assay: B16 tumor challenge (tumor volume, survival); assay type: in vivo, mouse; settings: topical, every three days
Text: The designs of these animal studies and procedures were approved by the Dana Farber Cancer Institute IACUC committee. Dana Farber's specific-pathogen free facility was used for the storage and care of all mice. Seven-week old wild-type female C57BL/6J mice were obtained from Jackson laboratories (Bar Harbor, ME). A colony of B6.129S2-Tcra^tm1Mom/J (Tcra) T cell-deficient mice were bred on site. Mice were aged matched to be 7-12 weeks old at the time of tumor inoculation. For screening, 2.0×10^6 library-transduced B16-Cas9 cells resuspended in Hanks Balanced Salt Solution (Gibco, Thermo Fisher Scientific, Waltham, MA) were mixed 1:1 by volume with Matrigel® (Corning, Corning, NY) and subcutaneously injected into the right flank on day 0. Mice were vaccinated with 1.0×10^6 GM-CSF-secreting B16 (GVAX) cells that had been irradiated with […] on days 1 and 4 to elicit an anti-tumor immune response. Subsequently, mice were treated with 100 μg of rat monoclonal anti-PD1 antibody (clone: 29F.1A12) on days 9 and 12 via intraperitoneal injection. For validation assays, 1.0×10^6 tumor cells were subcutaneously injected into the right flank without matrigel. Tumors were measured every 3 days beginning on day 6 after challenge until time of death. Measurements were taken manually by collecting the longest dimension (length) and the longest perpendicular dimension (width). Tumor volume was estimated with the formula: (L×W^2)/2. CO2 inhalation was used to euthanize mice on the day of sacrifice.
The designs of animal studies and procedures were approved by the Dana Farber Cancer Institute IACUC and the Broad Institute IACUC committees. Specific pathogen-free facilities at the Dana Farber and the Broad Institute were used for the storage and care of all mice. Six-week old wild-type female C57BL/6J mice were obtained from Jackson laboratories, Bar Harbor ME A colony of B6.129S2-Tcra^tm1Mom/J (Tcra) T cell-deficient mice were bred on site at the Dana Farber. […] Tumors were measured every 3 days beginning on day 6 after challenge until time of death. […]

ADA1 = target: T2, ADA1 (Homo sapiens, UniProt P00813); settings: cited from earlier work
T2 sequence (P00813 1-363): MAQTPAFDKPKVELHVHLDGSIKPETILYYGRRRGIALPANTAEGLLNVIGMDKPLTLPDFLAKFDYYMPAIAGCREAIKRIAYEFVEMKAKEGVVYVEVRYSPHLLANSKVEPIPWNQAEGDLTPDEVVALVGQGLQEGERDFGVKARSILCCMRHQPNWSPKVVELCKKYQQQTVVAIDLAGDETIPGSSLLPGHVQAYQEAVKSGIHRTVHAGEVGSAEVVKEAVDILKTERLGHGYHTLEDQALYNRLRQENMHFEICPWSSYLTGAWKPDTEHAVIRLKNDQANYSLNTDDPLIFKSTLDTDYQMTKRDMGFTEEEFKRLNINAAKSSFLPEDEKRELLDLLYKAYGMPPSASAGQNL

B16 tumor cells = assay: In vitro cytokine stimulation and growth inhibition assay; assay type: cell-based, mouse; settings: Adar-deficient versus control B16 tumor cells, 72 hours
Experimental: FIG. 9 includes 3 panels, identified as panels A, B, and C, which provide exemplary mechanisms of ADAR-induced sensitivity to checkpoint blockade. […] A certain number of B16 tumor cells (50 k; Adar null or control) were stimulated in vitro with cytokine for 72 hours and the cell numbers were then counted. […] A certain number of B16 tumor cells (50 k; Adar null or control) were stimulated with cytokine in vitro, washed to remove cytokine (for IFNβ), and evaluated via IFNβ ELISA. […] A certain number of B16 tumor cells (50 k; Adar null or control) were stimulated in vitro with cytokine for 72 hours and stained for Class I MHC and PD-L1.
Tumor cells were engineered as noted above and plated in DMEM+10% FBS containing the indicated combinations of cytokines: IFN (1,000 U/ml, PBL), IFN (100 ng/ml, Cell Signaling Technologies), TNF (10 ng/ml, PreproTech). For rescue/re-expression experiments, 10,000 cells were plated in 96-well plates and viable cells were enumerated after 72 hours using Cell Titer-Glo® (Promega, G7570). For all other growth inhibition assays, 50,000 cells were plated in 12-well plates and viable cells were counted after 72 hours using the Countess automated cell counting system (Thermo Fisher Scientific, C10227).

[3] = animals bearing Adar1 null B16 tumors

For `Nc1ccnc2c1ncn2[C@@H]1O[C@H](CO)[C@@H](O)[C@H]1O` [1-deazaadenosine], the “inhibition of ADA2” value (ADA2) is given as “can inhibit both ADA1 and ADA2”.

In the case of `c1ccc2c(c1)[I+]c1ccccc1-2` [DPI, diphenylene iodonium], the “ISG expression / interferon signaling” value [1] was “partially decreased ISG expression” and the “ISG expression / interferon signaling” value ([1]; listed as diphenylene iodonium (DPI)) was “partially alleviates interferon signaling”.

For `Cl.O=C(NCCCNc1nc(Nc2cccc(CN3CCOCC3)c2)ncc1C1CC1)C1CCC1` [MRT67307, MRT67307 hydrocloride], the ISG expression ([1]; TBK1 inhibitor treatment) was “reduced”.

In the case of `COc1cccc2c1C(=O)c1c(O)c3c(c(O)c1C2=O)C[C@@](O)(C(=O)CO)C[C@@H]3O[C@H]1C[C@H](N)[C@H](O)[C@H](C)O1` [doxorubicin], the “sensitization to ADAR1 knockout” value [2] was “failed to sensitize A549 cells to ADAR1 knockout”.

For `CC(C)Cn1cnc2c(N)nc3ccccc3c21` [imiquimod], the survival (B16 tumors; [3]) was “enhanced survival”, the tumor growth (B16 tumors; [3]) was “significantly slowed tumor growth” and the survival (B16 tumors; animals bearing control B16 tumors) was “nor topical therapy with imiquimod, a TLR7 agonist, increased the survival”.

In the case of `C[C@@H]1O[C@@H](O[C@H]2[C@H](Oc3cc(O)c4c(c3)O[C@H](c3ccc(O)cc3)CC4=O)O[C@H](CO)[C@@H](O)[C@@H]2O)[C@H](O)[C@H](O)[C@H]1O` [naringin], the “inhibition of ADA1” value (ADA1) is given as “potent ADA1 inhibitor”.

For `OC[C@H]1O[C@@H](n2cnc3c2NC=NC[C@H]3O)C[C@@H]1O` [pentostatin], the “inhibition of ADA2” value (ADA2) is given as “can inhibit both ADA1 and ADA2”.

With IFNγ the cytokine-induced growth arrest (B16 tumor cells) was “increases IFNβ and IFNγ-induced growth arrest; also recorded: increases susceptibility to IFNβ and IFNγ”.

In the case of “Type II interferon: recombinant human IFN-gamma protein (R&D Systems)”, the “sensitization to ADAR1 knockout” value [2] was “did not sensitize A549 cells to ADAR1 knockout”.

In the case of “erythro-9-(2-hydroxy-3-nonyl)adenine [EHNA]”, the “inhibition of ADA1” value (ADA1) is listed as “specifically inhibits ADA1”.
